{
  "source": "patent US8003615B2",
  "about": "“Stable vitamin B6 derivative” (Daiichi Fine Chemical Co., Ltd., priority 2003, dated 2011)",
  "key": {"[1]": {"format": "physicochemical", "conditions": "0.5% (w/v) aqueous solution, D65 fluorescent lamp 13,000 Lx", "description": "A 0.5% (w/v) aqueous solution of pyridoxine 3-β-D-glucoside (pH 6.7) in a volume of 0.3 ml was enclosed in a 1-ml volume glass ampoule, and irradiated with a D65 fluorescent lamp (Toshiba) for 14 days. The irradiation was performed at room temperature with an illumination of 13,000 Lx. Samples before the irradiation and after 1 day, 7 days and 14 days of the irradiation were analyzed by HPLC to measure a pyridoxine 3-β-D-glucoside content. A solution of pyridoxine hydrochloride of the same concentration (adjusted to pH 6.7) was treated in the same manner, and the results were compared. The HPLC measurement conditions were as follows.\nColumn: Inertsil ODS-3 ([…], ([…], φ4.6×150 mm, GL Science Inc.)\nEluent acetonitrile:0.1% (v/v) trifluoroacetic acid, 5 mM sodium 1-hexanesulfonate=1:9\nColumn temperature: 40° C.\nAqueous solutions (0.5% (w/v)) of pyridoxine 3-β-D-glucoside hydrochloride, pyridoxal 3-β-D-glucoside, pyridoxamine 3-β-D-glucoside, pyridoxine 3-β-D-galactoside, and pyridoxine hydrochloride (adjusted to pH 6.3 to 7.2 with HCl or NaOH) were each sealed in a volume of 0.3 ml in a 1-ml volume glass ampoule, and light irradiation and HPLC quantification were performed in the same manner as in Test Example 1. […] Test Example 4 (thermal stability of pyridoxine 3-β-D-glucoside hydrochloride and various 3-glycosides) […]"}, "[2]": {"test": "Light stability in a drinking water", "format": "physicochemical", "description": "Glucose (4.6 g), Aspartame (0.01 g), citric acid (0.1 g), sodium chloride (0.02 g), potassium chloride (0.02 g), magnesium chloride (0.01 g), calcium lactate (0.04 g), vitamin B6 derivative (0.01 g), sodium L-aspartate (0.07 g), sodium L-glutamate (0.02 g), L-arginine (0.02 g), and aromatic (0.1 g) were dissolved in purified water (70 ml), and then made into a volume of 100 ml with purified water to prepare a drinking water. In this preparation, precipitates and the like were not observed. The prepared drinking water in a volume of 6 ml was filled in a glass bottle, and exposed to light of a D65 fluorescent lamp at a total illumination of 0, 60,000, 180,000, or 300,000 lux·hr, and then the vitamin B6 derivative was quantified by the HPLC method in the same manner as in Test Example 1."}, "[3]": {"test": "Test for change in formulation: powder mixed with calcium pantothenate", "format": "physicochemical", "conditions": "40° C. and 75% humidity, one month", "description": "Calcium pantothenate (1 g) and a vitamin B6 derivative (1 g) was uniformly mixed in a mortar to prepare a sample in the form of a powder for stability test. The sample placed in an opened glass bottle was stored in an oven at 40° C. under 75% humidity. Appearance of the sample was examined by visual inspection after 0 day, 14 days, and one month, and the vitamin B6 derivative and calcium pantothenate were quantified by the HPLC method in the same manner as in Test Example 11 mentioned above, provided that the detection wavelength for calcium pantothenate was 210 nm."}},
  "data": [
    {"smiles": "Cc1ncc(CO)c(CO)c1O.Cl", "note": "[pyridoxine hydrochloride]", "values": [
      {"measurement": "coloring of the aqueous solution after the light irradiation", "setting": "[1]", "value": "colored in pale yellow"},
      {"measurement": "remained substance in drinking water after irradiation", "setting": "[2]; D65 fluorescent lamp, 180,000 lux·hr for 3 days", "value": 68, "unit": "%"},
      {"measurement": "remained substance in drinking water after irradiation", "setting": "[2]; D65 fluorescent lamp, 300,000 lux·hr for 5 days", "value": 56, "unit": "%"},
      {"measurement": "remained calcium pantothenate in the formulation with the substance", "setting": "[3]; powder 1 g + 1 g calcium pantothenate", "value": 81, "unit": "%"},
      {"measurement": "appearance of the formulation with calcium pantothenate", "setting": "[3]; powder, visual inspection", "value": "the white appearance became brown, and blocking and deliquescence were observed"}
    ]}
  ]
}
